Experimental data published in article PMC8400540, “Synthesis, Biological Evaluation, and In Silico Studies of New Acetylcholinesterase Inhibitors Based on Quinoxaline Scaffold” (Molecules, 2021).
Where two headings read alike, the source gives them in different places.

Tests used:
[1] = molecular target: T1, human recombinant acetylcholinesterase (HuAChE) (Homo sapiens, UniProt P22303); experiment: biochemical; details: for Selectivity BChE/AChE: Selectivity index for AChE: IC50 BChE/IC50 AChE
T1 construct: purchased Sigma-Aldrich

[2] = molecular target: T2, butyrylcholinesterase from equine serum (EqBChE) (Equus caballus, UniProt P81908); experiment: biochemical; assay type: biochemical; details: for IC50: EqBChE, n = three independent experiments; for IC50 / inhibition at 100 µM: mean ± SD; for inhibition at 100 µM: n = three, read-out: %Inhibition BChE; for butyrylcholinesterase inhibitory activity (in words): screened at 100 µM
T2 construct: butyrylcholinesterase from equine serum (eqBChE); purchased Sigma-Aldrich; host or cells: equine serum
Procedure: Initially, acetylcholinesterase and butyrylcholinesterase inhibitory activities of the compounds were screened at the concentration of 100 µM. […] The raw data of IC50 in this study were able to be accessed in Supplementary Materials.
Human recombinant acetylcholinesterase (HuAChE), butyrylcholinesterase from equine serum (eqBChE), acetylthiocholine iodide (ATCI), butyrylthiocholine iodide (BTCI) and 5,5′-dithiobis(2-nitrobenzoic acid) (DTNB) were gained from Sigma-Aldrich. Assays of acetyl- and butyrylcholinesterase inhibitory activity were performed according to Ellman’s method described previously. Briefly, these assays were performed as follows. The reaction mixture (250 µL), containing 50 µL of buffer (50 mM Tris-HCl buffer (pH 8.0), 0.1 M NaCl, 0.02 M MgCl2.6H2O), 25 µL of 1.5 mM of ATCI or BTCI, 25 µL of 100 µM of test compounds in EtOH and 125 µL of 3 mM DTNB were added. Then, 25 µL of HuAChE and equine serum of BChE in 50 mM Tris-HCl buffer containing 0.1% (w/v) BSA (pH 8.0). Reactions were initiated by the addition of the enzyme into the medium. […] Each experiment was repeated in triplicate.
The percentage of enzyme inhibitory activity (%Inhibition) was calculated by the following expression: %Inhibition = ((Mean velocity of blank-Mean velocity of sample) × 100)/Mean velocity of blank.

[3] = Cytotoxicity, sulforhodamine B (SRB) assay; assay type: cell-based; details: human, SH-SY5Y neuroblastoma cells, up to 100 µM, read-out: LC50
Procedure: Selected compounds in the series were then evaluated for their cytotoxicity against SH-SY5Y neuron cells. […].
Figure 3 The cytotoxic effect of synthesized compounds on SH-SY5Y cells as determined by SRB assay. Cells were treated with the synthesized compounds at different concentrations for 48 h, and then SRB assay was performed. Data are means ± SD of three independent experiments, and %cell viability was calculated relative to nontreated control.
The cytotoxicity assay of the tested compounds against human SH-SY5Y neuroblastoma cells was measured using a sulforhodamine B (SRB) assay. The cells were cultured in Dulbecco’s modified Eagle’s medium supplemented with 10% fetal bovine serum (Gibco, Paisley, UK) and grown at 37 °C in a humid atmosphere containing 5% CO2. Cells (10,000 cells/well) were seeded in a 96-well plate and incubated at 37 °C, 5% CO2 for 24 h. The cells were then treated with or without various concentrations (0, 3.125, 6.25, 12.5, 25, 50, and 100 μM) of each compound for 48 h. After an incubation period, 40% (w/v) trichloroacetic acid (TCA) was added to the cells, and the cells were then incubated at 4 °C for 1 h. A total of 0.4% (w/v) SRB solution (100 μL) was added to each well, and the cells were incubated for 1 h at room temperature. The SRB solution was removed, and then the cells were washed three times with 1% (v/v) acetic acid, and they were allowed to dry at room temperature. The protein-bound dye was dissolved with 10 mM Tris base solution, and the absorbance was measured at 492 nm using a microplate reader.

Human recombinant AChE = molecular target: T3, Human recombinant AChE (Homo sapiens, UniProt P22303); experiment: Enzyme kinetic study of AChE inhibition (Lineweaver-Burk); assay type: biochemical
T3 construct: purchased Sigma-Aldrich
Procedure: […]. The kinetic assay of AChE inhibition was carried out at 0, 30, 50 and 60 µM of compound 6c. […]. [ATCI], substrate concentration (µM); V, reaction velocity (1/V (abs/min)^−1).
Kinetic studies of HuAChE were performed by Ellman’s method as described above. […]. Kinetic characterization of the hydrolysis of ATCI for HuAChE was carried out spectrometrically at 405 nm every 11 s for 2 min. A parallel control was run with the assay solution without inhibitor. The inhibition was evaluated by Lineweaver–Burk plot from substrate concentrations range between 10 to 250 µM for ATCI and inhibitor concentrations (0, 30, 50, 60 µM). The type of inhibition (competitive, uncompetitive, noncompetitive and mixed type inhibition) was calculated from the Michaelis–Menten equation was converted to Lineweaver–Burk equation into a straight line by plotting 1/velocity opposite to 1/[S]. Graphs were plotted by means of GraphPad Prism 7.03 for Windows (GraphPad Software, San Diego, CA, USA, www.graphpad.com, accessed on 13 May 2021).
From obtained equations of regression curves in the Lineweaver-Burk plot, the values of maximum velocity (Vm) and Michealis constant (Km) were calculated. Using non-linear regression (selected panel: enzyme kinetic inhibition/ mixed model inhibition) the values of Ki and alpha were determined. The alpha value defines the mechanism. […]

[4] = HuAChE, mean ± SD, n = three independent experiments, read-out: IC50 AChE

T1 sequence (P22303 32-614): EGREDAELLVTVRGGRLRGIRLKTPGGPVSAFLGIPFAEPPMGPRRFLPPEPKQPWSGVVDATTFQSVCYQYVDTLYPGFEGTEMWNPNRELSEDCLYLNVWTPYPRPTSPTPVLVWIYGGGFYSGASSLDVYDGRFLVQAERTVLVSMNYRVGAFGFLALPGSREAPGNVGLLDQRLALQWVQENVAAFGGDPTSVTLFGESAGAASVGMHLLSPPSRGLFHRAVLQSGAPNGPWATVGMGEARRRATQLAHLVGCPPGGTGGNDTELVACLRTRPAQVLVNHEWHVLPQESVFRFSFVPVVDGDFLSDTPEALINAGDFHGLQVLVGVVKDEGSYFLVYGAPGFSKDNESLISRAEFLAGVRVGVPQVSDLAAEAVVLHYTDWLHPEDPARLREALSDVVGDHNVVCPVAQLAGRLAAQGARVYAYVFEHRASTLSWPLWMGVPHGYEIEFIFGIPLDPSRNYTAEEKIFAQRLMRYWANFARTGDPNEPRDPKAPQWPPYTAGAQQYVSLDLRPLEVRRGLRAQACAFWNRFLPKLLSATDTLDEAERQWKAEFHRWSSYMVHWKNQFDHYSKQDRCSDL
T2 sequence (P81908 whole entry): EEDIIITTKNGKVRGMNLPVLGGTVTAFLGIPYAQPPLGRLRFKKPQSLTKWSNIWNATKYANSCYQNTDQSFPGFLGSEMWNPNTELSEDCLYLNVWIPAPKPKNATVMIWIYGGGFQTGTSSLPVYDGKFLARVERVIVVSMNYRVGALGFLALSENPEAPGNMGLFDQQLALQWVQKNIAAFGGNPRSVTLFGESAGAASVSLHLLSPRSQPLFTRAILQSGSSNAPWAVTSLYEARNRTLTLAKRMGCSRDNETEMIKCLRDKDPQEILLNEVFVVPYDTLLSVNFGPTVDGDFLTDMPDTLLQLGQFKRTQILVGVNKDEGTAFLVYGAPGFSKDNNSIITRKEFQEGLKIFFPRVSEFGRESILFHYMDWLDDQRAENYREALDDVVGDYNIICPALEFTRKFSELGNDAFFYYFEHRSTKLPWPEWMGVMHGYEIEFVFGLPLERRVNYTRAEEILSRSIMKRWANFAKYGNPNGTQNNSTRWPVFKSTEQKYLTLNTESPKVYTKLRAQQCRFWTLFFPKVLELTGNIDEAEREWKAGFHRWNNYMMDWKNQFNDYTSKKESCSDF
T3 sequence (P22303 32-614): as the sequence (P22303 32-614) above

Row | Structure (SMILES) | IC50 [1, 4] [µM] | Selectivity BChE/AChE [1] | IC50 [2] [µM] | inhibition at 100 µM [2] [%] | butyrylcholinesterase inhibitory activity (in words) [2] | IC50 [1] [µM] | further results
1 | O=[N+]([O-])c1ccc2ncc(-c3ccccc3)nc2c1 [Compound 5b, 7-Nitro-2-phenylquinoxaline] | 39 ± 0.8 | 1.56 | 61 ± 3.4 |  |  |  | 
2 | O=[N+]([O-])c1ccc2nccnc2c1 [Compound 5a, 6-Nitroquinoxaline] | 21.3 ± 1.5 | 1.97 | 42 ± 1 |  |  |  | 
3 | Cc1nc2ccc([N+](=O)[O-])cc2nc1C [Compound 5c, 2,3-Dimethyl-6-nitroquinoxaline] | 8.42 ± 1.8 |  |  | 32.1 | no activity |  | 
4 | Cc1nc2ccccc2nc1C [Compound 3c, 2,3-Dimethylquinoxaline] |  |  |  | 23.4 | no activity | 7.25 ± 1.5 | 
5 | c1ccc(-c2cnc3ccccc3n2)cc1 [Compound 3b, 2-Phenylquinoxaline] | 50.1 ± 2.6 | 0.29 | 14.9 ± 2.6 |  |  |  | 
6 | Nc1ccc2ncc(-c3ccccc3)nc2c1 [Compound 6b, 3-Phenylquinoxalin-6-amine] | 1.31 ± 0.2 |  |  | 44.1 |  |  | CC50 at 48 h [3]: > 100 µM
7 | Clc1ccc2nccnc2c1 [Compound 4a, 6-Chloroquinoxaline] |  |  |  | 37.4 |  | 23.9 ± 1.3 | 
8 | c1ccc2nccnc2c1 [Compound 3a, Quinoxaline] |  | 3.07 | 40.6 ± 1.6 |  |  | 13.2 ± 4.1 | 
9 | Clc1ccc2ncc(-c3ccccc3)nc2c1 [Compound 4b, 7-Chloro-2-phenylquinoxaline] | 28.5 ± 1.6 |  |  | 41.2 |  |  | 
10 | Nc1ccc2nccnc2c1 [Compound 6a, Quinoxalin-6-amine] |  |  |  | 32.9 |  | 0.74 ± 0.5 | CC50 at 48 h [3]: > 100 µM
11 | Cc1nc2ccc(Cl)cc2nc1C [Compound 4c, 6-Chloro-2,3-dimethylquinoxaline] | 10.7 ± 1.4 |  |  | 37.4 | no activity |  | 
12 | Cc1nc2ccc(N)cc2nc1C [Compound 6c, 2,3-Dimethylquinoxalin-6-amine] | 0.077 ± 0.01 |  |  | 29.2 | no activity |  | type of AChE inhibition (Human recombinant AChE; Lineweaver-Burk plot): mixed-type inhibitor; Alpha (Human recombinant AChE; non-linear regression, mixed model inhibition): 0.1875; CC50 at 48 h [3]: > 100 µM
